# How the values were obtained:
# [1] = system: Human umbilical vein endothelial cells (HUVEC); experiment: HUVEC cell tube formation; format: cell-based; conditions: 0-1000 nM, 18 hours, absence of exogenous opioids
# Description: Two independent model systems were used to explore the role of MOR and endogenous opioids on angiogenesis. Human umbilical vein endothelial cells (HUVEC) in culture initiate angiogenesis through tube formation when cultured on an appropriate extracellular matrix. In a living system, the chicken egg chorioallantoic membrane assay (CAM) allows direct visualization of new blood vessel formation.
# Specifically, the HUVEC cell tube formation was assessed in the presence of various doses (0-1000 nM) of three different Mu opioid receptor antagonists (axelopran, naloxegol, and methylnaltrexone (MNTX)). For this testing, the HUVEC cells were exposed to the various MOR antagonist concentrations and incubated under the following conditions: Briefly, 50 μL of Matrigel in 96 well plates was loaded to make one layer of extracellular matrix. The plate was kept for 1 hour at 37° C. HUVEC cells were seeded on top of Matrigel (0.02×10^6 cells/well) and waited for 4 h to form tube formation. […] Once tubes formed, cells were treated with increasing amounts of the test compounds (axelopran, naloxegol, and MNTX) and incubated for 18 hours. Cells were stained with Calcein AM and images were captured. The data analysis was performed using NIH imageJ software. Tube length was measure and data was plotted using prism software.
# [2] = system: human microvascular endothelial cells; conditions: Feng et al. BMC Anesthesiol (2021); cited from earlier work
# [3] = system: MDA-MB-231 tumor cell line; experiment: Breast cancer tumor progression in the CAM assay; format: in vivo, chicken; conditions: 5 days of growth in the upper CAM; axelopran 1.0 mg/kg, pembrolizumab 2.5 mg/kg, bevacizumab 4 mg/kg
# Description: The chicken egg chorioallantoic membrane assay (FIG. 3B) allows for the study of tumor progression of injected tumor cells in the presence of active endogenous immune surveillance, but again in the absence of an active gut microbiome.
# Breast cancer cell tumor progression was assessed in the chicken egg, chorioallantoic membrane assay. The experimental timing is shown below in FIG. 9. Fertilized chicken eggs were incubated for 9 days. The MDA-MB-231 tumor cell line was cultivated in D-MEM medium supplemented with 10% FBS and 1% penicillin/streptomycin. On day E9, cells were detached with trypsin, washed with complete medium and suspended in graft medium. An inoculum of 1×10^6 cells was added onto the CAM of each egg (E9) and then eggs were randomized into groups. Tumor cells (breast cancer MDA-MB231 cells (10^6)) were then seeded on the upper CAM and further incubated for 3 three days. Test agents were then added to the same site at selected concentrations. Following five days of further incubation the growing tumor was excised, freed of CAM tissue, and weighed.
# For this testing, the chicken eggs were treated with: axelopran; pembrolizumab (Pembro); axelopran+pembrolizumab; bevacizumab (Beva); axelopran+bevacizumab; pembrolizumab+bevacizumab; and axelopran+pembrolizumab+bevacizumab. Axelopran was used at dose of 1.0 mg/kg; pembrolizumab was used at a dose of 2.5 mg/kg; and bevacizumab was used at a dose of 4 mg/kg. The results of this testing are shown in FIG. 10A, 10B, 11 and Table 2-2.
# [4] = system: Zebra fish larvae; experiment: Zebra fish larvae mortality in combination therapy study; format: in vivo, zebrafish; conditions: TILs plus pembrolizumab
# Description: (§1) The toxicity screening period covered the first 72 hours of development. The efficacy evaluation of Axelopran was made using M-001 melanoma cells and matching TILs. Two-day old zebrafish embryos were subcutaneously injected into the perivitelline space with approximately 700 M-001 cells labelled with Dil red fluorescent dye and intravenously injected with TILs with or without pembrolizumab antibody. At the same time, MOR-antagonist test doses were added to the water. Following an additional 72 hours of further development, the fish were assayed for tumor growth (size of original tumor implant) and metastasis disseminated to the distal caudal venous plexus (CVP) three days after implantation.
# For study investigating combination therapy, the Zebra fish larvae mortality was also investigated.
# [5] = system: M-001 melanoma cells; experiment: Melanoma tumor progression in Zebra fish larvae; format: in vivo, zebrafish; conditions: Pembro +TILS, no axelopran, 72 hours of growth
# Description: Zebra fish larvae (FIG. 3A) allow direct visualization of injected tumor cell growth and metastasis (collectively tumor progression) using fluorescently label tumor cells. At this developmental stage both the zebra fish immune system and gut microbiome are immature or lacking. Co-injection of exogenous tumor infiltrating lymphocytes (ex-TILS) allows the separate study of immune surveillance in the absence of a microbiome.
# as §1
# The testing described above was repeated studying the effects of various doses of axelopran (0, 50 nM, 100 nM, 500 nM, and 1000 nM) alone, pembrolizumab alone, or pembrolizumab in combination with axelopran. The results of this testing are shown in FIG. 7, which depicts a summary of melanoma tumor progression (tumor size×#metastasis) in the presence of increasing axelopran concentrations or the checkpoint inhibitor pembrolizumab. For experiments using pembrolizumab, exogenous tumor-infiltrating lymphocytes (TILs) were also injected. The additional controls included the effect of TILs alone and with axelopran (500 nM) and pembrolizumab and TILs alone and with axelopran (500 nM). *=<0.05, **=<0.005, ***=<0.0005.
Compound,angiogenesis (HUVEC cell tube formation) [1],"Breast cancer tumor progression index (tumor size × metastasis), Mean [3]",also measured
C[N@+]1(CC2CC2)CC[C@]23c4c5ccc(O)c4O[C@H]2C(=O)CC[C@@]3(O)[C@H]1C5 [methylnaltrexone],inhibit angiogenesis,–,–
C=CCN1CC[C@]23c4c5ccc(O)c4O[C@H]2[C@@H](OCCOCCOCCOCCOCCOCCOCCOC)CC[C@@]3(O)[C@H]1C5 [naloxegol],inhibit angiogenesis,–,–
C=CCN1CC[C@]23c4c5ccc(O)c4O[C@H]2C(=O)CC[C@@]3(O)[C@H]1C5 [naloxone],–,–,opioids-induced angiogenesis and angiogenesis by itself [2]: neither antagonizes opioids-induced angiogenesis nor induces angiogenesis by itself
bevacizumab: an anti-VEGF antibody,–,0.28 fraction of negative control,–
"pembrolizumab: an anti-PD1 antibody, checkpoint inhibitor",–,0.54 fraction of negative control,"Zebra fish larvae mortality [4]: 63%; Melanoma tumor progression index (tumor size × metastasis), Mean [5]: 4.83"

# From patent US20250186423A1, “METHODS OF TREATING CANCER AND OTHER CONDITIONS WITH A MU OPIOID RECEPTOR ANTAGONIST” (priority 2022, published 2025)
